Experimental data published in patent US11766469B2, “Q-peptide hydrogel promotes immune modulation and macrophage differentiation” (Quthero, Inc., priority 2019, dated 2023).

Key:
[1] = test system: bone marrow derived macrophages (BMDMs); assay: ELISA of cytokines released by BMDMs into culture media; format: cell-based, C57BL/6 mice; settings: 24 hours of culture
Procedure: (§1) Murine bone marrow derived macrophages (BMDM) were isolated from 8-12 week-old C57BL/6 mice (Charles River) according to a protocol approved by the University of Toronto Animal Care Committee. The mice were euthanized, and the femur and tibias were removed and placed in complete RPMI 1640+L-glutamine media (Gibco, 10% heat inactivated Fetal Bovine Serum, FBS, 1% Pen/Strep). The bones were separated and sterilized in 70% ethanol for 10 minutes. The heads of the bones were cut off, and the marrow was flushed out with a 23 G needle containing fresh complete RPMI 1640 media. The remaining cell culture media and bone marrow was homogenized by gentle pipetting. The cells were spun down and resuspended in ACK Lysing Buffer (Gibco) for 1 min to lyse remaining red blood cells. The lysing buffer was diluted with PBS, and the cell suspension was re-spun, and counted. Cells were seeded at 3 million cells/well in non-adherent 6-well culture plates containing 2 mL of complete RPMI 1640 media with 20 ng/mL of Macrophage Colony Stimulating Factor (M-CSF, Miltenyi Biotec). Half (50%) of the media was changed on day 3, and 5. On day 7, adherent cells were used as macrophages for experiments. Macrophage purity, as identified by F4/80+, CD11b+ positive staining, under all culture stimulations is >90%, consistent with previous studies (FIG. 6B).
Adherent macrophages were detached by incubating with 0.25% trypsin-EDTA for 10 minutes. Cells were polarized in response to the following treatment conditions: blank-included cultivation on tissue culture plastics; soluble Q-Peptide (650 μM) applied to macrophages cultivated on tissue culture plastics; and macrophages cultivated on the following hydrogel films: no peptide collagen-chitosan (empty) film, scrambled Q-Peptide film, and Q-Peptide film. BMDMs were polarized with lipopolysaccharide (LPS; 100 ng/mL) for pro-inflammatory, M(LPS), and IL-4 ([…]) for anti-inflammatory, M(IL-4) positive polarization controls. Cells were seeded directly onto a non-adherent 6-well plate for the blank and soluble Q-Peptide conditions, and onto solvent cast films for the empty film, scrambled Q-Peptide film, and Q-Peptide film at a concentration of 100,000 cells/cm^2. After 24 hours of culture, cell culture media was collected for ELISA analysis by Eve Technologies (Calgary, AB), and the concentrations of INF-γ, IL-1β, IL-2, IL-4, IL-6, IL-10, IL-12 p′70, GM-CSF, MCP-1, TNF-α, TGF-β31, TGF-β2, and TGF-β3 were measured.

[2] = test system: bone marrow derived macrophages (BMDMs); assay: BMDM culture on hydrogel films: cell attachment, total cell count, viability (Zombie Violet); format: cell-based, C57BL/6 mice; settings: after 24 hours of culture
Procedure: as §1, with “Cells were seeded at 3 million cells/well in non-adherent 6-well culture plates containing 2 mL of complete RPMI 1640 media with 20 ng/mL of Macrophage Colony Stimulating Factor (M-CSF, Miltenyi Biotec). Half (50%) of the media was changed on day 3, and 5. On day 7, adherent cells were used as macrophages for experiments. Macrophage purity, as identified by F4/80+, CD11b+ positive staining, under all culture stimulations is >90%, consistent with previous studies (FIG. 6B).” left out
Adherent macrophages were detached by incubating with 0.25% trypsin-EDTA for 10 minutes. […] After 24 hours of culture, cell culture media was collected for ELISA analysis by Eve Technologies (Calgary, AB), and the concentrations of INF-γ, IL-1β, IL-2, IL-4, IL-6, IL-10, IL-12 p′70, GM-CSF, MCP-1, TNF-α, TGF-β31, TGF-β2, and TGF-β3 were measured. […]

[3] = test system: rat myocardial infarction model; settings: cited from earlier work
[4] = test system: wounds; settings: wounds treated; cited from earlier work
[5] = compared to blank, soluble Q-Peptide and empty film (LPS: vs Q-Peptide film)

lipopolysaccharide [LPS]
concentration of IL-6 [1, 5]: an order of magnitude greater | concentration of MCP-1 [1, 5]: an order of magnitude greater | concentration of IL-10 ([1]; relative to the other culture conditions (LPS: vs Q-Peptide film)): an order of magnitude greater

QHREDGS (SEQ ID NO: 1) with biotin-Ahx N-terminal modification [soluble Q-Peptide]
BMDM cytokine release / cytokine concentration (overall) [1]: only had an effect on BMDM cytokine release when immobilized to a hydrogel | final cell count (cells in solution and attached) [2]: did not affect the final cell count | cell attachment (number of adhered cells/mm2) ([2]; compared with blank culture conditions): decrease in cell attachment | effectiveness in myocardial infarction model [3]: effective

B1: recombinant human TGF-β3: recombinant human TGF-β3 used to treat wounds in a clinical trial (protein, UniProt P10600 301-412, looked up)
Transforming growth factor …: ALDTNYCFRNLEENCCVRPLYIDFRQDLGWKWVHEPKGYYANFCSGPCPYLRSADTTHSTVLGLYNTLNPEASASPCCVPQDLEPLTILYYVGRTPKVEQLSNMVVKSCKCS
primary and secondary outcomes of a Phase III trial [4]: failed to reach primary and secondary outcomes
